In patent US20240189284A1, “COMPOSITION FOR PROMOTING LIPOLYSIS” (SUNTORY HOLDINGS LIMITED, priority 2021, published 2024):

Experiments:
[1] = mice, oral administration, vs. mice not administered; cited from earlier work
lipolysis = experiment: Blood metabolome evaluation study on human (placebo-controlled, randomized, double-blind, parallel-group; CE-TOF-MS); format: in vivo
Method: In order to evaluate the influence of supplements containing ergothioneine on the human blood metabolome, a placebo-controlled, randomized, double-blind, parallel-group study was conducted on subjects including male and female adults (46 subjects in a test food group; 46 subjects in a control food group; 92 subjects in total). In this study, one capsule containing 20 mg ergothioneine (test food) or one capsule not containing ergothioneine (control food) was fed per day for four weeks. The blood metabolome of each subject was measured for pre-testing before starting the study (before starting ingestion of the test food or control food). After ingestion of the test food or control food for four weeks, the blood metabolome of each subject was measured again (testing on week 4). The blood metabolome was measured by a capillary electrophoresis time-of-flight mass spectrometry (CE-TOF-MS) available from Human Metabolome Technologies, Inc. Two types of food for evaluation, which were indistinguishable in appearance, flavor, and the like, were used. • Test food: capsule containing a test substance (20 mg L-ergothioneine) • Control food: capsule containing no test substance Each type of food for evaluation contained raw materials such as dextrin, hydroxypropyl cellulose, carrageenan, potassium chloride, and titanium oxide, in addition to the test substance. The control food was produced using the same raw materials used in the test food, except that the test substance (L-ergothioneine) was not added. For each of lipid metabolism-related metabolites and lipids of various kinds for which significant changes were observed by the blood metabolome measurement, a ratio (test food group/control food group) was determined from the average of measurements (blood concentrations) of the test food group and the control food group at the time of testing on week 4. FIG. 1 is a graph showing blood metabolome measurements of the test food group and the control food group at the time of testing on week 4 in the form of ratios (test food group/control food group). […]

[2] = L-ergothioneine ingested compared to no L-ergothioneine ingested

C[N+](C)(C)[C@@H](Cc1c[nH]c(=S)[nH]1)C(=O)[O-] [L-ergothioneine]
peritesticular fat weight [1]: lower
triglyceride (neutral fat) level in plasma [1]: lower
blood free fatty acid (e.g., palmitoleic acid) concentration (lipolysis; [2]): increased
blood glycerol concentration (lipolysis; [2]): significantly increased
promotion of lipolysis (lipolysis; human adults, 20 mg L-ergothioneine per day for four weeks, blood metabolome as a whole): action to promote lipolysis
